Data: the supplement of paper PMC10627819

What was measured:
B. subtilis 168 = assay: Bliss interaction score (quartile over a dose matrix) (fitness difference); higher = more antagonism (negative = synergy)
Procedure, shortened: (§1)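 The Bliss score is observed minus expected fitness under the product model, reported as quartiles over technical, biological and donor/recipient replicates. Fitness is the OD595 at entry into stationary phase divided by the plate's robust no-drug mean and capped at 1. Single-drug fitness was inferred from combination data.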

S. pneumoniae D39V [1] = assay: as above
Procedure, shortened: as §1

S. aureus Newman [2] = assay: as above
Procedure, shortened: as §1

S. aureus DSM 20231 [3] = assay: as above
Procedure, shortened: as §1

S. aureus Newman [4] = assay: fitness (endpoint OD595 vs no drug) (fraction); higher = more growth
Procedure, shortened: (§2)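 Cultures at OD595 0.01 were dispensed into 384-well plates in TSB, LB Lennox or CY and incubated at 37 °C. Every 30 min for 14 h, OD595 was read and corrected by the first reading. Fitness is the optical density at entry into stationary phase relative to the robust mean of no-drug control wells, capped at 1.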

S. aureus DSM 20231 [5] = assay: as above
Procedure, shortened: as §2

S. pneumoniae D39V [6] = assay: as above
Procedure, shortened: as §2
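For Bliss interaction score (quartile over a dose matrix) in this document: first quartile when negative (synergy) and third quartile when positive (antagonism).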

Cc1cc(NS(=O)(=O)c2ccc(N)cc2)no1 [Sulfamethoxazol] + CCCCCCCCCC(=O)N[C@@H]1[C@H]([C@@H]([C@H](O[C@H]1OC2=C3C=C4C=C2OC5=C(C=C(C=C5)[C@H]([C@H]6C(=O)N[C@@H](C7=C(C(=CC(=C7)O)OC8[C@H]([C@H]([C@@H]([C@H](O8)CO)O)O)O)C9=C(C=CC(=C9)[C@H](C(=O)N6)NC(=O)[C@@H]4NC(=O)[C@@H]1C2=CC(=CC(=C2)OC2=C(C=CC(=C2)[C@H](C(=O)N[C@H](CC2=CC(=C(O3)C=C2)Cl)C(=O)N1)N)O)O)O)C(=O)O)O[C@H]1[C@@H]([C@H]([C@@H]([C@H](O1)CO)O)O)NC(=O)C)Cl)CO)O)O [Teicoplanin]
main component drawn
Settings	Bliss interaction score
B. subtilis 168	0.0811
S. aureus DSM 20231 [3]	0.0373
S. aureus Newman [2]	0.0326
S. pneumoniae D39V [1]	-0.0733

fitness, main component drawn
Settings	first compound 1 µg/mL	first compound 2 µg/mL	first compound 4 µg/mL
S. aureus DSM 20231 [5], partner 0.1562 µg/mL	0.941	≥ 1	0.965
S. aureus DSM 20231 [5], partner 0.3125 µg/mL	≥ 1	≥ 1	0.991
S. aureus DSM 20231 [5], partner 0.625 µg/mL	≥ 1	≥ 1	≥ 1
S. aureus Newman [4], partner 0.1562 µg/mL	≥ 1	≥ 1	≥ 1
S. aureus Newman [4], partner 0.3125 µg/mL	≥ 1	0.995	0.984
S. aureus Newman [4], partner 0.625 µg/mL	≥ 1	≥ 1	0.862

fitness, S. aureus Newman [4], one replicate, main component drawn
Settings	partner 0.1562 µg/mL	partner 0.3125 µg/mL	partner 0.62 µg/mL	partner 0.625 µg/mL	partner 1.24 µg/mL	partner 2.48 µg/mL
first compound 1 µg/mL	–	–	0.805	–	0.726	0.397
first compound 2 µg/mL	–	–	0.861	–	0.712	0.387
first compound 4 µg/mL	–	–	0.788	–	0.724	0.425
first compound 8 µg/mL	0.963	0.866	–	0.997	–	–

Cc1cc(NS(=O)(=O)c2ccc(N)cc2)no1 [Sulfamethoxazol] + CN[C@H](CC(C)C)C(=O)N[C@H]1C(=O)N[C@@H](CC(N)=O)C(=O)N[C@H]2C(=O)N[C@H]3C(=O)N[C@H](C(=O)N[C@H](C(=O)O)c4cc(O)cc(O)c4-c4cc3ccc4O)[C@H](O)c3ccc(c(Cl)c3)Oc3cc2cc(c3O[C@@H]2O[C@H](CO)[C@@H](O)[C@H](O)[C@H]2O[C@H]2C[C@](C)(N)[C@H](O)[C@H](C)O2)Oc2ccc(cc2Cl)[C@H]1O [Vancomycin]
Settings	Bliss interaction score
B. subtilis 168	-0.0423
S. aureus DSM 20231 [3]	0.0457
S. aureus Newman [2]	0.0422
S. pneumoniae D39V [1]	0.0444

fitness
Settings	first compound 1 µg/mL	first compound 2 µg/mL	first compound 4 µg/mL
S. aureus DSM 20231 [5], partner 0.1875 µg/mL	0.929	0.932	0.94
S. aureus DSM 20231 [5], partner 0.375 µg/mL	≥ 1	≥ 1	0.962
S. aureus DSM 20231 [5], partner 0.75 µg/mL	1	0.983	0.998
S. aureus Newman [4], partner 0.1875 µg/mL	0.991	0.988	≥ 1
S. aureus Newman [4], partner 0.375 µg/mL	0.993	0.968	≥ 1
S. aureus Newman [4], partner 0.75 µg/mL	0.977	0.953	≥ 1
S. pneumoniae D39V [6], partner 0.03125 µg/mL	0.964	0.961	0.97
S. pneumoniae D39V [6], partner 0.0625 µg/mL	0.909	0.899	0.961
S. pneumoniae D39V [6], partner 0.125 µg/mL	0.925	0.94	0.952

one replicate
Settings	fitness
S. aureus Newman [4], first compound 8 µg/mL, partner 0.1875 µg/mL	0.87
S. aureus Newman [4], first compound 8 µg/mL, partner 0.375 µg/mL	0.896
S. aureus Newman [4], first compound 8 µg/mL, partner 0.75 µg/mL	0.915
S. pneumoniae D39V [6], first compound 1 µg/mL, partner 0.25 µg/mL	0.262
S. pneumoniae D39V [6], first compound 1 µg/mL, partner 0.5 µg/mL	0.0171
S. pneumoniae D39V [6], first compound 2 µg/mL, partner 0.25 µg/mL	0.258
S. pneumoniae D39V [6], first compound 2 µg/mL, partner 0.5 µg/mL	0.0591
S. pneumoniae D39V [6], first compound 4 µg/mL, partner 0.25 µg/mL	0.772
S. pneumoniae D39V [6], first compound 4 µg/mL, partner 0.5 µg/mL	0.496

Cc1cc(NS(=O)(=O)c2ccc(N)cc2)no1 [Sulfamethoxazol] + Cn1nnc(-c2ccc(-c3ccc(N4C[C@H](CO)OC4=O)cc3F)cn2)n1 [Tedizolid]
Settings	Bliss interaction score
B. subtilis 168	-0.056
S. aureus DSM 20231 [3]	0.0501
S. aureus Newman [2]	0.0706
S. pneumoniae D39V [1]	-0.103

fitness
Settings	first compound 1 µg/mL	first compound 2 µg/mL	first compound 4 µg/mL
S. aureus DSM 20231 [5], partner 0.0625 µg/mL	0.919	0.922	0.883
S. aureus DSM 20231 [5], partner 0.125 µg/mL	0.586	0.626	0.565
S. aureus DSM 20231 [5], partner 0.25 µg/mL	0.213	0.232	0.223
S. aureus Newman [4], partner 0.0625 µg/mL	0.975	0.958	0.965
S. aureus Newman [4], partner 0.125 µg/mL	0.901	0.94	0.934
S. aureus Newman [4], partner 0.25 µg/mL	0.576	–	–
S. pneumoniae D39V [6], partner 0.03125 µg/mL	0.942	0.945	0.964
S. pneumoniae D39V [6], partner 0.0625 µg/mL	0.933	0.944	0.914
S. pneumoniae D39V [6], partner 0.125 µg/mL	0.754	0.781	0.777

fitness, one replicate
Settings	partner 0.0625 µg/mL	partner 0.125 µg/mL	partner 0.25 µg/mL	partner 0.5 µg/mL
S. aureus Newman [4], first compound 8 µg/mL	0.867	0.873	0.687	–
S. pneumoniae D39V [6], first compound 1 µg/mL	–	–	0.48	0.549
S. pneumoniae D39V [6], first compound 2 µg/mL	–	–	0.529	0.548
S. pneumoniae D39V [6], first compound 4 µg/mL	–	–	0.558	0.505
